Measured values as given in patent US20260132129A1 (Genesis Therapeutics, Inc., priority 2022, published 2026).

Target: T1, PI3Kα H1047R (T47D cells) (Homo sapiens, UniProt P42336, H1047R)
T1 construct: endogenous in cells; host or cells: T47D cells
Test: PI3Kα cellular assay: pAKT HTRF in T47D cells after EGF stimulation
Assay type: cell-based
Conditions: for IC50: T47D cells (PI3Kα H1047R), pAKT S473 HTRF, EGF stimulation
Summary of the method: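 T47D cells (PIK3CA H1047R) serum-starved 16 h, then treated 1 h at 37 °C with compound (10,000 nM top, 3-fold steps to 0.5 nM). After 10 min stimulation with 20 ng/mL EGF, cells were lysed and pAKT measured by HTRF.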

[1] = selectivity of T47D (H1047R) over SKBR3 (WT) pAKT IC50
[2] = selectivity T47D (H1047R) over SKBR3 (WT), pAKT HTRF

T1 sequence (P42336 whole entry H1047R): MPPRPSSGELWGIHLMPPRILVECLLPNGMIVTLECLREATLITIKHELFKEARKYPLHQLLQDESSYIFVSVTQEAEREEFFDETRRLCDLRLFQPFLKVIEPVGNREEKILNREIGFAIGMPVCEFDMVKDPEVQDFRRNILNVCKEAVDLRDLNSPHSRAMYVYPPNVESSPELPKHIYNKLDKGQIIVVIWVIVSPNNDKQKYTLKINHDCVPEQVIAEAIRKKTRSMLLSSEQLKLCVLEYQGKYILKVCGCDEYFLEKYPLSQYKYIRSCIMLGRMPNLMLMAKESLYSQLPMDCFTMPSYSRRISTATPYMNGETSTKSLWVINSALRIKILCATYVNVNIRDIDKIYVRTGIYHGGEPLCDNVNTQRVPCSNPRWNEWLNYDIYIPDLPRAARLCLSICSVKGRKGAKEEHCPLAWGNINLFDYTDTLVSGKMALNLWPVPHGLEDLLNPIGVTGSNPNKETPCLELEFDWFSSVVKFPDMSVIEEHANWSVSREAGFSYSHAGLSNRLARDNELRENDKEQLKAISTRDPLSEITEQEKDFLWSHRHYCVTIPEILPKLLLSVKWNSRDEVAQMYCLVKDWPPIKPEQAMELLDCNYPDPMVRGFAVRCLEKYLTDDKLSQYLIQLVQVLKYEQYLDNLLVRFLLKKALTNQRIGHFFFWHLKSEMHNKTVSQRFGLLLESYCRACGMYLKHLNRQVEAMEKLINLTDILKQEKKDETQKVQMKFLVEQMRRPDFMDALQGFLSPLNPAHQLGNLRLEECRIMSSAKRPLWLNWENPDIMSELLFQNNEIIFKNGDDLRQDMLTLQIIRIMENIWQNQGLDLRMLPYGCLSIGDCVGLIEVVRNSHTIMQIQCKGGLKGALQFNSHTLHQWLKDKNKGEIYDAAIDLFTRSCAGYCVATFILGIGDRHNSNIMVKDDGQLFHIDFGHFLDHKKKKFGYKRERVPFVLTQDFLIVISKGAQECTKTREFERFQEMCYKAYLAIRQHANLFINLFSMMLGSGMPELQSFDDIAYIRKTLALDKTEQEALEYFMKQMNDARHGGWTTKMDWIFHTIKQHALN
T1 sequence (P27986 whole entry partner): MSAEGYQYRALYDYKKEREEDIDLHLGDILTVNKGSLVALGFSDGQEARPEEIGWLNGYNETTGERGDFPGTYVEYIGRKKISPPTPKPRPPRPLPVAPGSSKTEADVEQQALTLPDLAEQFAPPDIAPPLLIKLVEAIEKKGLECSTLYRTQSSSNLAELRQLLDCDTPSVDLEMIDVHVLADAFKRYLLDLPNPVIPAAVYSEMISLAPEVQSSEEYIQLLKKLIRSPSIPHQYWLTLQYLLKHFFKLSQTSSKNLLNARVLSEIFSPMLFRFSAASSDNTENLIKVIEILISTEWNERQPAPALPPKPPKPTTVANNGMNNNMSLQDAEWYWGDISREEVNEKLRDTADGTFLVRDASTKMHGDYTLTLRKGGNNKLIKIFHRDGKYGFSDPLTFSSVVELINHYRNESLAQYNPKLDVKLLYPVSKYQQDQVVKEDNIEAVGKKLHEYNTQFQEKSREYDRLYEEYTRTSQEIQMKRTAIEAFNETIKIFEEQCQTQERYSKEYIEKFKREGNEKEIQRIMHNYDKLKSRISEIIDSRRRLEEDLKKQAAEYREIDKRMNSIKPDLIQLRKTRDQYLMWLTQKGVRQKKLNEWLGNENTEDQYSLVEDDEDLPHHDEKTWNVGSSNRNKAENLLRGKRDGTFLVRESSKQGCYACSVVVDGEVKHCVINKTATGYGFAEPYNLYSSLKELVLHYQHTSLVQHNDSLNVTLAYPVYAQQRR

SMILES	IC50	T47D pAKT S473 HTRF IC50 (H1047R): T47D (H1047R) selectivity over SKBR3 (WT) [1]	T47D pAKT S473 HTRF IC50 (H1047R): T47D (H1047R) selectivity over SKBR3 (WT) [2]
Cc1cc([C@@H](C)Nc2ccccc2S(N)(=O)=O)c2nc(-c3cnc4c(c3)c(C)nn4C3CC3)c(C)c(=O)n2c1 [Compound 991]	100 to 500 nM	A (A denotes >20-fold)	
Cc1cc([C@@H](C)Nc2ccccc2S(N)(=O)=O)c2nc(-c3ccc4c(c3)c(C)cn4C3CC3)c(C)c(=O)n2c1 [Compound 995]	> 2000 nM	C (C denotes ≤5-fold)	
Cc1cc(C(C)Nc2cccc3c2S(=O)(=O)NC3=O)c2nc(N3Cc4ccccc4C3)cc(=O)n2c1 (stereo not drawn) [Compound 998]		C (C denotes ≤5-fold)	
Cc1cc([C@@H](C)Nc2ccccc2C(=O)O)c2nc(-c3ccncc3)c(C)c(=O)n2c1 [Compound 1004]	> 2000 nM	C (C denotes ≤5-fold)	
Cc1cc([C@H](C)Nc2ccccc2C(=O)O)c2nc(-c3ccc4c(c3)c(C)cn4C3CCOCC3)c(C)c(=O)n2c1 [Compound 1009]		C (C denotes ≤5-fold)	
Cc1cc([C@@H](C)Nc2cc[nH]c2-c2ccnnc2)c2nc(N3Cc4ccccc4C3)c(C)c(=O)n2c1 [Compound 1014]		C (C denotes ≤5-fold)	
CCc1c(-c2ccc3c(c2)c(C)cn3C)nc2c(C(C)Nc3ccccc3C(=O)O)cc(C)cn2c1=O (stereo not drawn) [Compound 1019]	100 to 500 nM	A (A denotes >20-fold)	
Cc1cc([C@@H](C)Nc2ccccc2C(=O)O)c2nc(-c3ccc(F)c(C)c3)c(C)c(=O)n2c1 [Compound 1022]	< 100 nM	A (A denotes >20-fold)	
Cc1cc(C(C)Nc2ccccc2C(=O)O)c2nc(-c3ccc4c(c3)c(C#N)nn4C3CC3)c(C)c(=O)n2c1 (stereo not drawn) [Compound 1026]	100 to 500 nM	A (A denotes >20-fold)	
Cc1cc([C@@H](C)Nc2ccccc2S(N)(=O)=O)c2nc(-c3ccc4c(C)nn(C5CC5)c4c3)c(C)c(=O)n2c1 [Compound 1027]	100 to 500 nM	A (A denotes >20-fold)	
Cc1cc([C@H](C)Nc2ccccc2S(N)(=O)=O)c2nc(-c3ccc4c(C)nn(C5CC5)c4c3)c(C)c(=O)n2c1 [Compound 1028]		C (C denotes ≤5-fold)	
Cc1cc([C@H](C)Nc2ccccc2S(N)(=O)=O)c2nc(-c3ccc(F)c(C#N)c3)c(C)c(=O)n2c1 [Compound 1032]	> 2000 nM	C (C denotes ≤5-fold)	
Cc1cc(C(C)Nc2ccccc2S(N)(=O)=O)c2nc(-c3cccc(C#N)c3)c(C)c(=O)n2c1 (stereo not drawn) [Compound 1033]	100 to 500 nM	A (A denotes >20-fold)	
Cc1cc([C@@H](C)Nc2ccccc2S(N)(=O)=O)c2nc(-c3cccc(C#N)c3)c(C)c(=O)n2c1 [Compound 1034]	< 100 nM	A (A denotes >20-fold)	
Cc1cc([C@H](C)Nc2ccccc2S(N)(=O)=O)c2nc(-c3cccc(C#N)c3)c(C)c(=O)n2c1 [Compound 1035]	> 2000 nM	C (C denotes ≤5-fold)	
C[C@@H]1C[C@H](C)CN(c2cc(=O)n3cc(C(F)(F)F)cc([C@@H](C)Nc4ccccc4C(=O)O)c3n2)C1 [Compound 1036]	< 100 nM	A (A denotes >20-fold)	

SMILES	IC50	T47D pAKT S473 HTRF IC50 (H1047R): T47D (H1047R) selectivity over SKBR3 (WT) [1]	T47D pAKT S473 HTRF IC50 (H1047R): T47D (H1047R) selectivity over SKBR3 (WT) [2]
C=CC(=O)Nc1ccc(C(=O)O)c(NC(C)c2cc(C)cn3c(=O)c(C)c(N4Cc5ccccc5C4)nc23)c1 (stereo not drawn) [Compound 1039]	> 2000 nM	C (C denotes ≤5-fold)	
CC(=O)NS(=O)(=O)c1ccccc1N[C@@H](C)c1cc(C)cn2c(=O)c(C)c(-c3ccc4c(c3)CC(F)(F)C4)nc12 [Compound 1040]		C (C denotes ≤5-fold)	
CCc1c(-c2ccc3c(c2)c(C)cn3C)nc2c([C@H](C)Nc3ccccc3C(=O)O)cc(C)cn2c1=O [Compound 1043]		B (B denotes 20-fold≥value>5-fold)	
Cc1cc([C@@H](C)Nc2ccccc2C(=O)O)c2nc(-c3ccc4c(c3)c(C#N)nn4C3CC3)c(C)c(=O)n2c1 [Compound 1048]	100 to 500 nM	A (A denotes >20-fold)	
Cc1cc([C@H](C)Nc2ccccc2C(=O)O)c2nc(-c3ccc4c(c3)c(C#N)nn4C3CC3)c(C)c(=O)n2c1 [Compound 1049]	> 2000 nM	C (C denotes ≤5-fold)	
Cc1cc([C@@H](C)Nc2ccccc2C(=O)O)c2nc(-c3cnc4c(c3)c(C)cn4C)c(C)c(=O)n2c1 [Compound 1050]	< 100 nM	A (A denotes >20-fold)	
Cc1cc([C@H](C)Nc2ccccc2C(=O)O)c2nc(-c3cnc4c(c3)c(C)cn4C)c(C)c(=O)n2c1 [Compound 1051]		C (C denotes ≤5-fold)	
Cc1cc([C@@H](C)Nc2ccccc2C(=O)O)c2nc(-c3cnc(C)c(Cl)c3)c(C)c(=O)n2c1 [Compound 1052]	100 to 500 nM	A (A denotes >20-fold)	
Cc1cc([C@H](C)Nc2ccccc2C(=O)O)c2nc(-c3cnc4c(c3)c(C)cn4C)c(C)c(=O)n2c1 [Compound 1053]		C (C denotes ≤5-fold)	
Cc1cc(C(C)Nc2ccccc2C(=O)O)c2nc(-c3cnc4c(c3)c(C)nn4C3CC3)c(C)c(=O)n2c1 (stereo not drawn) [Compound 1054]		B (B denotes 20-fold≥value>5-fold)	
Cc1cc([C@@H](C)Nc2ccccc2C(=O)O)c2nc(C3CCOCC3)c(C)c(=O)n2c1 [Compound 1055]	100 to 500 nM	A (A denotes >20-fold)	
Cc1cc([C@H](C)Nc2ccccc2C(=O)O)c2nc(C3CCOCC3)c(C)c(=O)n2c1 [Compound 1056]	> 2000 nM	C (C denotes ≤5-fold)	
Cc1cc([C@H](C)Nc2ccccc2S(N)(=O)=O)c2nc(-c3cnc4c(c3)c(C)cn4C)c(C)c(=O)n2c1 [Compound 1060]	> 2000 nM		C (C denotes ≤5-fold)
Cc1cc([C@@H](C)Nc2ccccc2S(C)(=O)=O)c2nc(-c3ccc4c(C)cn(C)c4c3)c(C)c(=O)n2c1 [Compound 1061]			C (C denotes ≤5-fold)
Cc1cc([C@H](C)Nc2ccccc2S(C)(=O)=O)c2nc(-c3ccc4c(C)cn(C)c4c3)c(C)c(=O)n2c1 [Compound 1062]			C (C denotes ≤5-fold)
